IC50 data for four compounds are collected here from BindingDB's records for patent US12391660 (Hangzhou Westan Pharmaceutical Technology Co., 2025).

What is called IC50 is the concentration needed to halve the response being measured. A lower IC50 goes with higher potency.

Sequence of Transient receptor potential cation channel subfamily A member 1 (O75762 whole entry): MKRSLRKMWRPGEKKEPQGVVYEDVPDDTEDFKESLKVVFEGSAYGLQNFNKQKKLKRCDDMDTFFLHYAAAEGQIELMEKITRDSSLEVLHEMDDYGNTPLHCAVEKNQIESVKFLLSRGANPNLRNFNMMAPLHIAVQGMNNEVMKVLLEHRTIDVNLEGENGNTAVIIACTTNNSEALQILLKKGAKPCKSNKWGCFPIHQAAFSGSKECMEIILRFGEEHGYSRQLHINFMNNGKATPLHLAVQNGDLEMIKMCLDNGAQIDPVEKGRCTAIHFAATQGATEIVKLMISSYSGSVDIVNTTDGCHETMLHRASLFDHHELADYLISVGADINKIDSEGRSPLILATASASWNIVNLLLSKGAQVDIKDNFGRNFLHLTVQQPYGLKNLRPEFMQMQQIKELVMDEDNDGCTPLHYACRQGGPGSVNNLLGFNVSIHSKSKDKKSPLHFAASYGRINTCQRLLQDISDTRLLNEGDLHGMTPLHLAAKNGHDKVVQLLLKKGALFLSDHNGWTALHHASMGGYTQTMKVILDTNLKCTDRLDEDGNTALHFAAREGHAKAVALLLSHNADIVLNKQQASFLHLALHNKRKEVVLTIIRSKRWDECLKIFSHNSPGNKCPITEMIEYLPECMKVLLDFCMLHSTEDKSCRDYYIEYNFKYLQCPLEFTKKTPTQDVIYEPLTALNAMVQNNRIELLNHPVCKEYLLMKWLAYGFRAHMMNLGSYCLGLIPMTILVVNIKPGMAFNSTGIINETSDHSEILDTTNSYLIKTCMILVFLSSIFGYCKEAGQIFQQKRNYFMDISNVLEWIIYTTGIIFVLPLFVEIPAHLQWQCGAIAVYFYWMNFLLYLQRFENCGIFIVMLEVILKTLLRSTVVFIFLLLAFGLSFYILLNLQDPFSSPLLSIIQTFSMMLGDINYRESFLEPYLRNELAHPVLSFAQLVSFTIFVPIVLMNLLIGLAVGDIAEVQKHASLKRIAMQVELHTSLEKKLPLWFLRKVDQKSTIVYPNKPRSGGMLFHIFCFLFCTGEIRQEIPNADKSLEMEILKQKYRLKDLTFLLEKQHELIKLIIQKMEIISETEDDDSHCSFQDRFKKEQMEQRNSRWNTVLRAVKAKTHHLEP

This experiment addresses Transient receptor potential cation channel subfamily A member 1 (Homo sapiens, UniProt O75762). Nature of the experiment: FLIPR Assay of Inhibitory Activity on Human TRPA1. How it is done: Table 3.1: The cell analysis plate was placed in an FLIPR instrument ([…]), and the compound in the compound plate was added to the corresponding hole on the cell analysis plate (First addition) via an automatic program, and the calcium ion fluorescence signal was recorded to determine whether the compound had agonistic activity. After 10 minutes, CaCl2 (Second addition) was added a final concentration of 3 mM to each well to stimulate intracellular calcium flux signals. Ca++-dependent fluorescence signal was monitored continuously at 538 nm wavelength to analyze the inhibitory activity of the compounds.
Take `O=C(N1CCN(c2cccc(C(F)(F)F)n2)CC1)C1(Nc2ccc(Cl)cc2)CCCC1` [US12391660, Compound 20]: the IC50 was found to be 56 nM.
In the case of `O=C(N1CCN(c2ccc(C(F)(F)F)nn2)CC1)C1(Nc2ccc([N+](=O)[O-])cc2)CCCC1` [US12391660, Compound 21], the IC50 turned out to be 875 nM.
The result for `CN(c1ccc(C#N)cc1)C1(C(=O)N2CCC(C(C)(C)C)CC2)CCCC1` [US12391660, Compound 44] reads 280 nM; that for `Cn1cc(OC2(C(=O)N3CCN(c4ccc(C(F)(F)F)cn4)CC3)CCCC2)nc1C#N` [US12391660, Compound 61], 2870 nM.
